{"source": "paper PMC4076210", "about": "“Discovery of Novel AKT Inhibitors with Enhanced Anti-Tumor Effects in Combination with the MEK Inhibitor” (PLoS ONE, 2014)", "key": {"[1]": {"tested_on": "hematological tumor cell lines", "test": "3-day proliferation assay (CellTiter-Glo)", "type": "cell-based, human", "conditions": "Homo sapiens", "method": "Various tumor cell lines were obtained from different sources including; the American Type Cell Culture Collection, the Developmental Therapeutics Program, the National Cancer Institute, the German Resource Center for Biological Material and the European Collection of Animal Cell Cultures. Cell lines were typically grown in […] containing 10% FBS. Some cell lines were grown in media specified by the vendor. A 3-day proliferation assay using CellTiter-Glo (CTG, Promega) was performed to measure the growth inhibition by the compounds at 0–30 µM. Cell growth was determined relative to untreated (DMSO) controls. EC50's were calculated from inhibition curves using a 4- or 6-parameter fitting algorithm in the Assay Client application."}, "[2]": {"target": "T1, BrSK2(h) (Homo sapiens, UniProt Q8IWQ3)", "T1 construct": "purchased Millipore KinaseProfiler", "T1 sequence (Q8IWQ3 1-736)": "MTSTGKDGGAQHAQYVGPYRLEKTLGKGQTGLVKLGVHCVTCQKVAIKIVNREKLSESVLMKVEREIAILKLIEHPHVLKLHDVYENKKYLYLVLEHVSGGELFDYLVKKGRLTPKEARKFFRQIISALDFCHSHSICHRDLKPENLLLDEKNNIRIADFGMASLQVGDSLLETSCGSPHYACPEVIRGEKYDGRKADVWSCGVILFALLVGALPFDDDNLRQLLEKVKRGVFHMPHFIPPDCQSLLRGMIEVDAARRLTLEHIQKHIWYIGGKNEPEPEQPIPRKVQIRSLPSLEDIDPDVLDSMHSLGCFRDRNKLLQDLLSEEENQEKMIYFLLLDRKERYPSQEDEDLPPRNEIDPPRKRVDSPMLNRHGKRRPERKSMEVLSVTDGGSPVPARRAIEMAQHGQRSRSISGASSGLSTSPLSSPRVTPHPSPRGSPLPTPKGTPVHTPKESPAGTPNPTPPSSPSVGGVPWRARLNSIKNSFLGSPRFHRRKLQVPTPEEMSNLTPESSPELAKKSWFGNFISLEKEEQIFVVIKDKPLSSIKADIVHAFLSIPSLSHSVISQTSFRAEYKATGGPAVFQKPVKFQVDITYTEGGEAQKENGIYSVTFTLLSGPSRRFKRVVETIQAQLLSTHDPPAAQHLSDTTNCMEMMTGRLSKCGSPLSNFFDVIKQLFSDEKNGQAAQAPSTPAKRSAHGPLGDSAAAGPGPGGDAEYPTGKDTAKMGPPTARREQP", "test": "Kinase panel", "type": "biochemical", "conditions": "read-out: % Inhibition"}, "[3]": {"target": "T2, GRK6(h) (Homo sapiens, UniProt P43250)", "T2 construct": "purchased Millipore KinaseProfiler", "T2 sequence (P43250 whole entry)": "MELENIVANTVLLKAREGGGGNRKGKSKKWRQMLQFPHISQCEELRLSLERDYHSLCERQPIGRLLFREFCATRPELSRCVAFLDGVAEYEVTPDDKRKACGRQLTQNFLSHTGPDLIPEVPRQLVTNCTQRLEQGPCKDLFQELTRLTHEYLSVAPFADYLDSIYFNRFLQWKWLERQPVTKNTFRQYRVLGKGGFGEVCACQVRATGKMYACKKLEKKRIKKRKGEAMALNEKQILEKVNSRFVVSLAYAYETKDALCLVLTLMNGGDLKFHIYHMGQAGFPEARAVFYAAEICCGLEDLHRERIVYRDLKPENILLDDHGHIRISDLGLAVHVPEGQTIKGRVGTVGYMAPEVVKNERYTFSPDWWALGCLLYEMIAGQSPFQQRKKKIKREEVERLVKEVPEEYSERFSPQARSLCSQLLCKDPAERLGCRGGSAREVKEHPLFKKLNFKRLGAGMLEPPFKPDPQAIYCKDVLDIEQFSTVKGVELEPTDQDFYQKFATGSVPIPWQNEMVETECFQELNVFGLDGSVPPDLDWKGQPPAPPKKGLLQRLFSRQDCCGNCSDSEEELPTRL", "test": "Kinase panel", "type": "biochemical", "conditions": "read-out: % Inhibition"}, "[4]": {"target": "T3, eEF-2K(h) (Homo sapiens, UniProt O00418)", "T3 construct": "purchased Millipore KinaseProfiler", "test": "Kinase panel", "type": "biochemical", "conditions": "read-out: % Inhibition"}}, "data": [{"smiles": "Cn1ncc(Cl)c1-c1cc(C(=O)N[C@H](CN)Cc2ccc(F)c(F)c2)oc1Cl", "note": "[GSK2141795]", "values": [{"measurement": "IC50", "setting": "[1]; MEC2, MEC-2 cell line, CLL, B Cell", "result": 112, "unit": "nM"}, {"measurement": "IC50", "setting": "[1]; MEG-01, MEG01 cell line, CML, Megakaryoblastic", "result": 285, "unit": "nM"}, {"measurement": "IC50", "setting": "[1]; MHH-CALL-3 cell line, ALL, pre-B Cell", "result": 26, "unit": "nM"}, {"measurement": "IC50", "setting": "[1]; MHH-PREB-1, MHH-PREB-1 cell line, Non-Hodgkin's Lymphoma, B Cell", "result": 932, "unit": "nM"}, {"measurement": "IC50", "setting": "[1]; ML-2, ML-2 cell line, AML, Myelomonocytic", "result": 399, "unit": "nM"}, {"measurement": "IC50", "setting": "[1]; MOLT-3, MOLT3 cell line, ALL, T Cell", "result": 19, "unit": "nM"}, {"measurement": "IC50", "setting": "[1]; MOLT-4, Molt-4 cell line, ALL, T Cell", "result": 10, "unit": "nM"}, {"measurement": "IC50", "setting": "[1]; MOLT-16, MOLT16 cell line, ALL, T Cell", "result": 15, "unit": "nM"}, {"measurement": "IC50", "setting": "[1]; MV4-11, MV-4-11 cell line, AML, Myelomonocytic", "result": 875, "unit": "nM"}, {"measurement": "IC50", "setting": "[1]; NALM-6, Nalm-6 cell line, ALL, pre-B Cell", "result": 74, "unit": "nM"}, {"measurement": "IC50", "setting": "[1]; NC-37, NC-37 cell line, Burkitt's Lymphoma, B Cell", "result": 752, "unit": "nM"}, {"measurement": "IC50", "setting": "[1]; NOMO-1, Nomo-1 cell line, AML, B Cell", "result": 48, "unit": "nM"}, {"measurement": "IC50", "setting": "[1]; NU-DHL-1, NU-DHL-1 cell line, Burkitt's Lymphoma, B Cell", "result": 16, "unit": "nM"}, {"measurement": "IC50", "setting": "[1]; OCI-AML2, OCI-AML-2 cell line, AML, B Cell", "result": 18100, "unit": "nM"}, {"measurement": "IC50", "setting": "[1]; OCI-AML-3, OCI-AML-3 cell line, AML, B Cell", "result": 28, "unit": "nM"}, {"measurement": "IC50", "setting": "[1]; OCI-M1, OCI-M1 cell line, AML, B Cell", "result": 644, "unit": "nM"}, {"measurement": "IC50", "setting": "[1]; P3HR-1, P3HR-1 cell line, Burkitt's Lymphoma, B Cell", "result": 17, "unit": "nM"}, {"measurement": "IC50", "setting": "[1]; PLB-985, PLB985 cell line, AML, B Cell", "result": 1140, "unit": "nM"}, {"measurement": "IC50", "setting": "[1]; Pfeiffer, Pfeiffer cell line, Non-Hodgkin's Lymphoma, B Cell", "result": 10, "unit": "nM"}, {"measurement": "IC50", "setting": "[1]; RCH-ACV cell line, ALL, pre-B Cell", "result": 157, "unit": "nM"}, {"measurement": "IC50", "setting": "[1]; RCK8, RC-K8 cell line, Non-Hodgkin's Lymphoma (Histiocytic), B Cell", "result": 1750, "unit": "nM"}, {"measurement": "IC50", "setting": "[1]; REH, Reh cell line, ALL, pre-B Cell", "result": 92, "unit": "nM"}, {"measurement": "IC50", "setting": "[1]; RL, RL cell line, Non-Hodgkin's Lymphoma, B Cell", "result": 72, "unit": "nM"}, {"measurement": "IC50", "setting": "[1]; RPMI-6666, RPMI 6666 cell line, Hodgkin's Lymphoma, Lymphoblast", "result": 121, "unit": "nM"}, {"measurement": "IC50", "setting": "[1]; RS4-11, RS4;11 cell line, ALL, B Cell", "result": 177, "unit": "nM"}, {"measurement": "IC50", "setting": "[1]; Raji, Raji cell line, Burkitt's Lymphoma, B Cell", "result": 6370, "unit": "nM"}, {"measurement": "IC50", "setting": "[1]; Rec1, REC-1 cell line, Non-Hodgkin's Lymphoma, B Cell", "result": 721, "unit": "nM"}, {"measurement": "IC50", "setting": "[1]; SC-1, SC1 cell line, Burkitt's Lymphoma, B Cell", "result": 965, "unit": "nM"}, {"measurement": "IC50", "setting": "[1]; SEM cell line, ALL, pre-B Cell", "result": 210, "unit": "nM"}, {"measurement": "IC50", "setting": "[1]; SKO-007, SKO-007 cell line, Multiple Myeloma, B Cell", "result": 4890, "unit": "nM"}, {"measurement": "IC50", "setting": "[1]; SKW3, SKW-3 cell line, CLL, B Cell", "result": 26, "unit": "nM"}, {"measurement": "IC50", "setting": "[1]; SR, SR cell line, Non-Hodgkin's Lymphoma, Lymphoblast", "result": 1960, "unit": "nM"}, {"measurement": "IC50", "setting": "[1]; ST486, ST486 cell line, Burkitt's Lymphoma, B Cell", "result": 745, "unit": "nM"}, {"measurement": "IC50", "setting": "[1]; SU-DHL10, SU-DHL-10 cell line, Non-Hodgkin's Lymphoma, B Cell", "result": 73, "unit": "nM"}, {"measurement": "IC50", "setting": "[1]; SU-DHL-4, SU-DHL-4 cell line, Non-Hodgkin's Lymphoma, B Cell", "result": 53, "unit": "nM"}, {"measurement": "IC50", "setting": "[1]; SU-DHL-5, SU-DHL-5 cell line, Non-Hodgkin's Lymphoma, B Cell", "result": 31, "unit": "nM"}, {"measurement": "IC50", "setting": "[1]; SU-DHL-6, SU-DHL-6 cell line, Non-Hodgkin's Lymphoma, B Cell", "result": 35, "unit": "nM"}, {"measurement": "IC50", "setting": "[1]; SU-DHL-16, SU-DHL-16 cell line, Non-Hodgkin's Lymphoma, B Cell", "result": 23, "unit": "nM"}, {"measurement": "IC50", "setting": "[1]; SUP-B15, SUP B15 cell line, ALL, B Cell", "result": 824, "unit": "nM"}, {"measurement": "IC50", "setting": "[1]; T-cell, 8E5 cell line, ALL, T Cell", "result": 31, "unit": "nM"}, {"measurement": "IC50", "setting": "[1]; T-cell, A3 cell line, ALL, T Cell", "result": 38, "unit": "nM"}, {"measurement": "IC50", "setting": "[1]; T-cell, CEM/C3 cell line, ALL, T Cell", "result": 18, "unit": "nM"}, {"measurement": "IC50", "setting": "[1]; T-cell, I2.1 cell line, ALL, T Cell", "result": 26, "unit": "nM"}, {"measurement": "IC50", "setting": "[1]; T-cell, I9.2 cell line, ALL, T Cell", "result": 43, "unit": "nM"}, {"measurement": "IC50", "setting": "[1]; T-cell, J.Cam.1.6 cell line, ALL, T Cell", "result": 41, "unit": "nM"}, {"measurement": "IC50", "setting": "[1]; T-cell, J.RT-T3.5 cell line, ALL, T Cell", "result": 30, "unit": "nM"}, {"measurement": "IC50", "setting": "[1]; T-cell, JR45.01 cell line, ALL, T Cell", "result": 16, "unit": "nM"}, {"measurement": "IC50", "setting": "[1]; T-cell, LOUCY cell line, ALL, T Cell", "result": 13, "unit": "nM"}, {"measurement": "IC50", "setting": "[1]; T-cell, MJ cell line, Non-Hodgkin's Lymphoma (CTCL), T Cell", "result": 2880, "unit": "nM"}, {"measurement": "IC50", "setting": "[1]; T-cell, P116 cell line, ALL, T Cell", "result": 18, "unit": "nM"}, {"measurement": "IC50", "setting": "[1]; T-cell, SUPTI(VB) cell line, ALL, T Cell", "result": 115, "unit": "nM"}, {"measurement": "IC50", "setting": "[1]; TO 175.T, TO 175.T cell line, Hodgkin's Lymphoma, Unspecified", "result": 5250, "unit": "nM"}, {"measurement": "IC50", "setting": "[1]; Toledo, Toledo cell line, Non-Hodgkin's Lymphoma, B Cell", "result": 99, "unit": "nM"}, {"measurement": "IC50", "setting": "[1]; U-937, U937 cell line, Non-Hodgkin's Lymphoma (Histiocytic), Monocyte", "result": 22, "unit": "nM"}, {"measurement": "inhibition at 0.5 µM", "setting": "[2]; 0.5 µM", "result": 2, "unit": "%"}, {"measurement": "inhibition at 10 µM", "setting": "[2]; 10 µM", "result": 27, "unit": "%"}, {"measurement": "inhibition at 0.5 µM", "setting": "[3]; 0.5 µM", "result": -16, "unit": "%"}, {"measurement": "inhibition at 10 µM", "setting": "[3]; 10 µM", "result": 26, "unit": "%"}, {"measurement": "inhibition at 0.5 µM", "setting": "[4]; 0.5 µM", "result": 4, "unit": "%"}, {"measurement": "inhibition at 10 µM", "setting": "[4]; 10 µM", "result": 3, "unit": "%"}]}]}
